Measurements: patent US12533426B2, “Ultrafine nanoparticles comprising a functionalized polyorganosiloxane matrix and including metal complexes; method for obtaining same and uses thereof in medical imaging and/or therapy” (NANOH, priority 2010, dated 2026)

Test: Relaxometry of the particles (Bruker Minispec MQ60 NMR analyser, 1.4 T)
Format: physicochemical
Settings: at 50 MHz; gadolinium quantities measured by ICP
Method: The relaxivity r1 considered here is a relaxivity per M^n+ ion (for example gadolinium). r1 is found from the following formula: 1/T1=[1/T1]water+r1[M^n+] […]
Moreover, the relaxivity of the particles from Example 15 was measured by relaxometry, the actual quantities of gadolinium being measured by ICP, on a Varian 710-ES instrument.

Compound: O=C([O-])CN1CCN(CC(=O)[O-])CCN(CC(=O)[O-])CCN(CC(=O)[O-])CC1.[Gd+3] [Gd-DOTA]
- relaxivity r1 (of the gadolinium species): 3.8 s^−1 mM^−1 (of gadolinium)^−1.s^−1
